Where “and” joins values, the source holds several entries; their conditions need not be identical. Equal entries are not always repeated.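 Five concentrations, 48 hours, 96-well plates. GI50 = concentration required for 50% inhibition of growth.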 Calls of active or inactive are those of the source. Rule as the data show it: active = GI50 up to about 1.1 µM and inactive = higher.
How the values were obtained:
Assay in all cases: inhibition of tumour cell growth, NCI panel, 48 h
786-0 = system: 786-0
A549 = system: A549
ACHN = system: ACHN
BT-549 = system: BT-549
CAKI-1 = system: CAKI-1
DLD-1 = system: DLD-1
DMS-273 = system: DMS-273
DU-145 = system: DU-145
HCC 2998 = system: HCC 2998
HCT-116 = system: HCT-116
HCT-15 = system: HCT-15
HL-60 = system: HL-60
HT-29 = system: HT-29
Hs-578T = system: Hs-578T
IGROV-1 = system: IGROV-1
KM-20L2 = system: KM-20L2
LOX IMVI = system: LOX IMVI
LXFL 529 = system: LXFL 529
M14 = system: M14
MCF7 = system: MCF7
MDA-MB-231 = system: MDA-MB-231
MDA-MB-435 = system: MDA-MB-435
MDA-N = system: MDA-N
MOLT-4 = system: MOLT-4
NCI-H23 = system: NCI-H23
NCI-H460 = system: NCI-H460
NCI-H522 = system: NCI-H522
OVCAR-8 = system: OVCAR-8
PC-3 = system: PC-3
RPMI-8226 = system: RPMI-8226
SF-539 = system: SF-539
SK-MEL-5 = system: SK-MEL-5
SNB-19 = system: SNB-19
SR = system: SR
U-251 = system: U-251
XF498 = system: XF498
CCRF-CEM = system: CCRF-CEM
COLO 205 = system: COLO 205
DMS-114 = system: DMS-114
EKVX = system: EKVX
HOP-62 = system: HOP-62
HOP-92 = system: HOP-92
K562 = system: K562
KM12 = system: KM12
M19-MEL = system: M19-MEL
Malme-3M = system: Malme-3M
NCI-H226 = system: NCI-H226
OVCAR-3 = system: OVCAR-3
OVCAR-4 = system: OVCAR-4
OVCAR-5 = system: OVCAR-5
SF-268 = system: SF-268
SF-295 = system: SF-295
SK-MEL-2 = system: SK-MEL-2
SK-OV-3 = system: SK-OV-3
SN12C = system: SN12C
SNB-75 = system: SNB-75
SNB-78 = system: SNB-78
SW-620 = system: SW-620
UO-31 = system: UO-31
A498 = system: A498
RXF 393 = system: RXF 393
TK-10 = system: TK-10
UACC-257 = system: UACC-257
UACC-62 = system: UACC-62

Measured: GI50

Nc1nc(N)c2nc(CNc3ccc(C(=O)NC(CCCNC(=O)c4ccccc4C(=O)O)C(=O)O)cc3)cnc2n1 (stereo not drawn)
inactive: BT-549 6.18 µM | Hs-578T > 100 µM | MDA-MB-231 > 100 µM | XF498 > 100 µM
0.01 µM: HCT-15
active: 786-0 0.01 µM | A549 < 0.01 µM | ACHN 0.01 µM | CAKI-1 0.01 µM | DLD-1 < 0.01 µM | DMS-273 0.01 µM | DU-145 0.01 µM | HCC 2998 < 0.01 µM | HCT-116 < 0.215 µM | HL-60 < 0.01 µM | HT-29 < 0.01 µM | IGROV-1 < 0.01 µM | KM-20L2 0.00875 µM | LOX IMVI < 0.01 µM | LXFL 529 0.000762 µM | M14 0.01 µM | MCF7 0.01 µM | MDA-MB-435 0.00311 µM | MDA-N 0.01 µM | MOLT-4 < 19.4 nM and < 10 nM | NCI-H23 < 0.01 µM | NCI-H460 < 0.01 µM | NCI-H522 < 0.01 µM | OVCAR-8 < 0.01 µM | PC-3 0.01 µM | RPMI-8226 < 0.01 µM | SF-539 < 0.01 µM | SK-MEL-5 10 nM and < 18.4 nM | SNB-19 < 20.2 nM and 21.6 nM | SR 0.01 µM | U-251 < 10 nM and 14.3 nM

COc1ccc(C(C2=C(C)C(=O)c3ccccc3C2=O)c2ccc(C(C)C)cc(=O)c2O)cc1 (stereo not drawn)
inactive: 786-0 2.53 µM | A549 3.55 µM | ACHN 3.05 µM | CAKI-1 3.03 µM | CCRF-CEM 3.73 µM | COLO 205 5.31 µM | DLD-1 4.79 µM | DMS-114 2.82 µM | DMS-273 2.23 µM | EKVX 2.77 µM | HCT-116 3.81 µM | HL-60 2.61 µM | HOP-62 2.59 µM | HOP-92 3.57 µM | HT-29 6.04 µM | IGROV-1 4.16 µM | K562 3.55 µM | KM12 4.3 µM | LOX IMVI 3.55 µM | LXFL 529 4.06 µM | M14 2.53 µM | M19-MEL 2.22 µM | MOLT-4 3.47 µM | Malme-3M 4.26 µM | NCI-H226 1.7 µM | NCI-H23 3.51 µM | NCI-H460 3.78 µM | NCI-H522 13.8 µM | OVCAR-3 2.68 µM | OVCAR-4 6.49 µM | OVCAR-5 2.06 µM | OVCAR-8 4.18 µM | RPMI-8226 3.74 µM | SF-268 3.77 µM | SF-295 4.7 µM | SF-539 2.69 µM | SK-MEL-2 1.16 µM | SK-MEL-5 5.96 µM | SK-OV-3 3.49 µM | SN12C 2.87 µM | SNB-75 2.59 µM | SNB-78 5.41 µM | SR 3.29 µM | SW-620 6.1 µM | U-251 3.12 µM | UO-31 2.12 µM
active: XF498 0.685 µM
2.58 µM: HCT-15

COC(=O)c1c(C(=O)OC)c(-c2ccccc2)n(-c2ccccc2)c(=O)c1-c1ccccc1
inactive: 786-0 32.4 µM | A498 > 100 µM | A549 80.4 µM | CAKI-1 51.2 µM | CCRF-CEM > 100 µM | COLO 205 > 100 µM | DLD-1 66.5 µM | DMS-114 74.1 µM | DMS-273 87.7 µM | EKVX > 100 µM | HCC 2998 > 100 µM | HCT-116 58.7 µM | HL-60 > 100 µM | HOP-62 27.6 µM | HOP-92 24.3 µM | HT-29 > 100 µM | IGROV-1 > 100 µM | K562 > 100 µM | KM-20L2 > 100 µM | KM12 > 100 µM | LOX IMVI 84.5 µM | LXFL 529 > 100 µM | M14 > 100 µM | M19-MEL 92.3 µM | MOLT-4 > 100 µM | Malme-3M 61.2 µM | NCI-H226 > 100 µM | NCI-H23 72.8 µM | NCI-H460 98.6 µM | NCI-H522 94.8 µM | OVCAR-3 51.8 µM | OVCAR-4 25.2 µM | OVCAR-5 > 100 µM | OVCAR-8 51.4 µM | RPMI-8226 > 100 µM | RXF 393 20.9 µM | SF-268 55.7 µM | SF-295 36.9 µM | SF-539 17.7 µM | SK-MEL-5 > 100 µM | SK-OV-3 53.5 µM | SN12C > 100 µM | SNB-19 67.9 µM | SNB-75 27.2 µM | SNB-78 54.7 µM | SR > 100 µM | SW-620 > 100 µM | TK-10 > 100 µM | U-251 42.9 µM | UACC-257 71.8 µM | UACC-62 61 µM | UO-31 59.7 µM | XF498 23.1 µM
> 100 µM: HCT-15
